{"source": "patent US20050182065A1", "about": "“Method of stimulating hair growth” (priority 2004, published 2005)", "key": {"C3H/HeN mice [1]": {"system": "C3H/HeN mice", "test": "Telogen Conversion Assay", "type": "in vivo", "conditions": "Experiment 8; for Results: number of days following initiation of treatment when hair growth appeared in 50% of the mice: topical once daily for 5 days, solvent polyethylene glycol 30 v/v %, ethanol 30 v/v %, transcutanol 40 v/v %, vehicle 28"}, "C3H/HeN mice [2]": {"system": "C3H/HeN mice", "test": "Telogen Conversion Assay", "type": "in vivo", "conditions": "for Results: number of days following initiation of treatment when hair growth appeared in 50% of the mice: topical once daily for 5 days, propylene glycol 30%/ethanol 70%", "description": "The Telogen Conversion Assay measures the potential of a compound (hereinafter referred to as the “test compound”) to convert mice in the resting stage of the hair growth cycle (“telogen”) to the active stage of the hair growth cycle (“anagen”). This assay takes advantage of the fact that the fur (i.e. hair) of 40-day-old C3H/HeN mice is in the telogen phase. This phase usually continues until about 75 days of age, at which point, anagen naturally occurs in these animals. In this assay, selected areas of 40-day-old mice (approximate) are shaved, contacted with a test agent, or a control, and the difference in the rate of hair growth is measured (i.e. induction of the anagen phase). The first sign of anagen is the darkening of skin color as melanocytes in the follicles start to synthesize melanin, in preparation for the production of pigmented hairs.\nFemale C3H/HeN mice, 7 weeks old (Charles River Laboratories, Raleigh, N.C.) were used for the study. Fur was clipped from the dorsal region of the mice prior to initiation of the study. Only mice with pink skin, a visual indication of the telogen phase, were selected for inclusion in the study.\nTest compounds (from Table A) were dissolved in a vehicle consisting of propylene glycol (30%) and ethanol (70%). A test compound dissolved in vehicle, or a vehicle control (30/70 propylene glycol/ethanol, unless otherwise specified) was applied topically to the clipped dorsal region of the mice in each test group (7-10 mice) in a volume of 20 μl/cm^2. Treatments were applied once daily for 5 days.\nThe treatment area was observed and graded for signs of hair growth. The hair growth response was quantified by recording, for each animal, the day on which signs of hair growth first appeared over the treated area. The first sign of anagen was the darkening of skin color as melanocytes in the follicles started to synthesize melanin. The response time was measured as the number of days between initiation of treatment and when hair growth was present in 50% of the mice in a given group.\nThe results are reported as the number of days following initiation of treatment when hair growth appeared in 50% of the mice in a given group."}}}
{"smiles": "Cn1nc(O[C@@H]2c3cc(S(=O)(=O)c4cccc(O)c4)ccc3OC(C)(C)[C@@]2(C)O)ccc1=O", "note": "[Compound #1, (3S,4R)-3,4-dihydro-4-(2,3-dihydro-2-methyl-3-oxopyridazin-6-yl)oxy-3-hydroxy-6-(3-hydroxyphenyl)sulphonyl-2,2,3-trimethyl-2H-benzo[b]pyran]", "values": [{"measurement": "Results: number of days following initiation of treatment when hair growth appeared in 50% of the mice", "setting": "C3H/HeN mice [1]; 0.3 w/v %", "value": 21, "unit": "days"}, {"measurement": "Results: number of days following initiation of treatment when hair growth appeared in 50% of the mice", "setting": "C3H/HeN mice [1]; 1.0 w/v %", "value": 21, "unit": "days"}, {"measurement": "Induction of anagen (conclusion in words)", "setting": "C3H/HeN mice [1]; transcutol, ethanol, polypropylene glycol vehicle", "value": "exhibited activity at all doses tested in this vehicle"}, {"measurement": "Relative efficacy in the telogen conversion assay (summary)", "setting": "C3H/HeN mice [2]; 15 experiments, compared with the other potassium channel openers of Table A", "value": "showed the highest relative efficacy in the model"}, {"measurement": "Results: number of days following initiation of treatment when hair growth appeared in 50% of the mice", "setting": "C3H/HeN mice [2]; Experiment 1, 1.0 w/v %, terminated early", "value": ">35", "unit": "days"}, {"measurement": "Induction of anagen (conclusion in words)", "setting": "C3H/HeN mice [2]; Experiment 2", "value": "exhibited signs of anagen sooner than those receiving Compound #6"}, {"measurement": "Results: number of days following initiation of treatment when hair growth appeared in 50% of the mice", "setting": "C3H/HeN mice [2]; Experiment 2, 0.3 w/v %, vehicle 25", "value": 11, "unit": "days"}, {"measurement": "Results: number of days following initiation of treatment when hair growth appeared in 50% of the mice", "setting": "C3H/HeN mice [2]; Experiment 2, 1.0 w/v %, vehicle 25", "value": 11, "unit": "days"}, {"measurement": "Results: number of days following initiation of treatment when hair growth appeared in 50% of the mice", "setting": "C3H/HeN mice [2]; Experiment 3, 0.1 w/v %, terminated early", "value": ">35", "unit": "days"}, {"measurement": "Results: number of days following initiation of treatment when hair growth appeared in 50% of the mice", "setting": "C3H/HeN mice [2]; Experiment 3, 0.3 w/v %, terminated early", "value": ">35", "unit": "days"}, {"measurement": "Results: number of days following initiation of treatment when hair growth appeared in 50% of the mice", "setting": "C3H/HeN mice [2]; Experiment 3, 1.0 w/v %, terminated early", "value": ">35", "unit": "days"}, {"measurement": "Results: number of days following initiation of treatment when hair growth appeared in 50% of the mice", "setting": "C3H/HeN mice [2]; Experiment 4, 0.3 w/v %, vehicle >33", "value": 26, "unit": "days"}, {"measurement": "Results: number of days following initiation of treatment when hair growth appeared in 50% of the mice", "setting": "C3H/HeN mice [2]; Experiment 4, 1.0 w/v %, vehicle >33", "value": 26, "unit": "days"}, {"measurement": "Induction of anagen (conclusion in words)", "setting": "C3H/HeN mice [2]; Experiment 4, terminated early", "value": "induced anagen at each of the test concentrations"}, {"measurement": "Results: number of days following initiation of treatment when hair growth appeared in 50% of the mice", "setting": "C3H/HeN mice [2]; Experiment 5, 0.03 w/v %, vehicle >35", "value": ">35", "unit": "days"}, {"measurement": "Results: number of days following initiation of treatment when hair growth appeared in 50% of the mice", "setting": "C3H/HeN mice [2]; Experiment 5, 0.1 w/v %, vehicle >35", "value": ">35", "unit": "days"}, {"measurement": "Results: number of days following initiation of treatment when hair growth appeared in 50% of the mice", "setting": "C3H/HeN mice [2]; Experiment 5, 0.3 w/v %, vehicle >35", "value": ">35", "unit": "days"}, {"measurement": "Results: number of days following initiation of treatment when hair growth appeared in 50% of the mice", "setting": "C3H/HeN mice [2]; Experiment 6, 0.003 w/v %, vehicle >35", "value": ">35", "unit": "days"}, {"measurement": "Results: number of days following initiation of treatment when hair growth appeared in 50% of the mice", "setting": "C3H/HeN mice [2]; Experiment 6, 0.03 w/v %, vehicle >35", "value": ">35", "unit": "days"}, {"measurement": "Results: number of days following initiation of treatment when hair growth appeared in 50% of the mice", "setting": "C3H/HeN mice [2]; Experiment 6, 0.3 w/v %, vehicle >35", "value": 28, "unit": "days"}, {"measurement": "Induction of anagen (conclusion in words)", "setting": "C3H/HeN mice [2]; Experiment 6, terminated early, up to day 35", "value": "induced anagen despite the early termination of the experiment"}, {"measurement": "Results: number of days following initiation of treatment when hair growth appeared in 50% of the mice", "setting": "C3H/HeN mice [2]; Experiment 7, 0.003 w/v %, vehicle 29", "value": 26, "unit": "days"}, {"measurement": "Results: number of days following initiation of treatment when hair growth appeared in 50% of the mice", "setting": "C3H/HeN mice [2]; Experiment 7, 0.03 w/v %, vehicle 29", "value": 24, "unit": "days"}, {"measurement": "Results: number of days following initiation of treatment when hair growth appeared in 50% of the mice", "setting": "C3H/HeN mice [2]; Experiment 7, 0.3 w/v %, vehicle 29", "value": 19, "unit": "days"}, {"measurement": "Induction of anagen (conclusion in words)", "setting": "C3H/HeN mice [2]; Experiment 7, proceeded to completion", "value": "induced anagen at all of the concentrations tested"}, {"measurement": "Results: number of days following initiation of treatment when hair growth appeared in 50% of the mice", "setting": "C3H/HeN mice [2]; Experiment 8, 1.0 w/v %, vehicle >35", "value": 18, "unit": "days"}, {"measurement": "Results: number of days following initiation of treatment when hair growth appeared in 50% of the mice", "setting": "C3H/HeN mice [2]; Experiment 9, 0.03 w/v %, terminated early", "value": ">33", "unit": "days"}, {"measurement": "Results: number of days following initiation of treatment when hair growth appeared in 50% of the mice", "setting": "C3H/HeN mice [2]; Experiment 9, 0.3 w/v %, terminated early", "value": ">33", "unit": "days"}, {"measurement": "Results: number of days following initiation of treatment when hair growth appeared in 50% of the mice", "setting": "C3H/HeN mice [2]; Experiment 9, 1.0 w/v %, terminated early", "value": ">33", "unit": "days"}, {"measurement": "Results: number of days following initiation of treatment when hair growth appeared in 50% of the mice", "setting": "C3H/HeN mice [2]; Experiment 10, 0.1 w/v %, terminated early", "value": ">34", "unit": "days"}, {"measurement": "Results: number of days following initiation of treatment when hair growth appeared in 50% of the mice", "setting": "C3H/HeN mice [2]; Experiment 10, 0.3 w/v %, terminated early", "value": ">34", "unit": "days"}, {"measurement": "Induction of anagen (conclusion in words)", "setting": "C3H/HeN mice [2]; Experiment 11", "value": "induced anagen"}, {"measurement": "Results: number of days following initiation of treatment when hair growth appeared in 50% of the mice", "setting": "C3H/HeN mice [2]; Experiment 11, 0.3 w/v %, vehicle 56", "value": 25, "unit": "days"}, {"measurement": "Induction of anagen (conclusion in words)", "setting": "C3H/HeN mice [2]; Experiment 12", "value": "did not induce anagen"}, {"measurement": "Results: number of days following initiation of treatment when hair growth appeared in 50% of the mice", "setting": "C3H/HeN mice [2]; Experiment 12, 1.0 w/v %, vehicle 37", "value": 39, "unit": "days"}, {"measurement": "Induction of anagen (conclusion in words)", "setting": "C3H/HeN mice [2]; Experiment 13", "value": "induced anagen"}, {"measurement": "Results: number of days following initiation of treatment when hair growth appeared in 50% of the mice", "setting": "C3H/HeN mice [2]; Experiment 13, 1.0 w/v %, vehicle 28", "value": 14, "unit": "days"}, {"measurement": "Induction of anagen (conclusion in words)", "setting": "C3H/HeN mice [2]; Experiment 14", "value": "induced anagen"}, {"measurement": "Results: number of days following initiation of treatment when hair growth appeared in 50% of the mice", "setting": "C3H/HeN mice [2]; Experiment 14, 1.0 w/v %, vehicle 29", "value": 25, "unit": "days"}, {"measurement": "Results: number of days following initiation of treatment when hair growth appeared in 50% of the mice", "setting": "C3H/HeN mice [2]; Experiment 15, 0.3 w/v %, vehicle >30", "value": 16, "unit": "days"}, {"measurement": "Results: number of days following initiation of treatment when hair growth appeared in 50% of the mice", "setting": "C3H/HeN mice [2]; Experiment 15, 1.0 w/v %, vehicle >30", "value": 23, "unit": "days"}, {"measurement": "Induction of anagen (conclusion in words)", "setting": "C3H/HeN mice [2]; Experiment 15, terminated early", "value": "induced anagen at both of the concentrations tested"}]}
